Starred links: 1 amine or outer side, 2 acyl side, 3 side chain; linkers in the order of their positions; H or OH if unused. Non-standard residues stand in square brackets, D forms with d. Residues, ends and D or L forms follow the SMILES beside them. X10 = NCCCC[C@H](NC(=S)[C@@H](Cc1c[nH]c2ccccc12)N[*:1])C(=O)[*:2]; X8 = O=C([C@H](Cc1ccccc1)NC(=S)[C@@H]1CCCN1[*:1])[*:2]; X4 = CC(C)C[C@H](N[*:1])C(=S)N1CCC[C@@H]1C(=O)[*:2]
Legend:
in vitro [1] = conditions: both, human, plasma
[2] = PAMPA passive permeability; assay type: in vitro ADME;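 note: passive permeability across an artificial membrane in 96-well pre-coated PAMPA plates, which lack transporters and efflux systems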
Protocol: Encouraged by this, the passive permeability of the analogs was evaluated using an artificial membrane (PAMPA), which measures permeability of compounds in the absence of transporters and efflux systems[32].
96-well BD Corning® pre-coated PAMPA plates were used following the supplier’s protocol, details in Supplementary Information.

physchem = conditions: pH 7.4
[3] = assay type: physicochemical
in vitro [4] = conditions: both, human, plasma; remark: listed apart in the source
Protocol: Blood was freshly drawn from three healthy adults, two male and one person of 26–28 year old. […] The plasma was separated by centrifugation. […] For checking metabolic stability, the required volume of plasma was pre-incubated at 37 °C prior to the experiment for 2 min, followed by spiking with the peptides. At different time points, plasma was aliquoted. The supernatant was separated and used for RP-HPLC quantification. Rapid Equilibrium Dialysis (RED) assay was performed to assess the plasma protein binding of the peptides following the supplier’s protocol.

SSTR5 = target: T1, SSTR5 (Homo sapiens, UniProt P35346); experiment: GloSensor assay, inhibition of forskolin-induced cAMP production; assay type: cell-based
T1 construct: expressed in transfected cells; host or cells: HEK-293T (CRL-3216)
T1 sequence (P35346 whole entry): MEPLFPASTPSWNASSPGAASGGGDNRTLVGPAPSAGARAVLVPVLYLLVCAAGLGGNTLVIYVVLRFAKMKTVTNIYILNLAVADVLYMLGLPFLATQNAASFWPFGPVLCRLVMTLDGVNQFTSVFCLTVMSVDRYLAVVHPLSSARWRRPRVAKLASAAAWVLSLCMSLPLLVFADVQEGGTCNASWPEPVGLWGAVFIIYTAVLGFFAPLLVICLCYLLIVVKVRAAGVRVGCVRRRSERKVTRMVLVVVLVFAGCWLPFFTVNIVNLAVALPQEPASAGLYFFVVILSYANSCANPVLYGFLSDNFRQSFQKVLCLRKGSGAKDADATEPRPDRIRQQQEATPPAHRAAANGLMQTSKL
Protocol: HEK-293T cells (CRL-3216 from ATCC, procured from NCCS, Pune) were co-transfected with human somatostatin receptor subtypes 2 & 5, plasmid cDNA, and cAMP biosensor (pGloSensorTM-22F plasmid; Promega Corp.) using PEImax. Ligand incubation was followed by the addition and incubation of forskolin (FSK) to the plate. Dose-dependent inhibition of forskolin-induced cAMP production by the peptide ligands was measured using a luminescence plate reader. An elaborate description of the assay setup has been provided in Supplementary Information.

in vivo = conditions: male, rat, sc; for half-life: Sprague-Dawley
Protocol: Subsequently, we selected 13a, 13b, 13d, and 13e for assessing their plasma exposure post single dose subcutaneous injection into male Sprague Dawley rats.
All animals were housed individually in the animal facility at Anthem Biosciences Pvt. Ltd and were acclimatized for 3 days. All animals were fasted overnight before dosing, whereas access to water was provided ad libitum. Peptides were administered orally and via s.c. route and blood samples were collected at different time points through a jugular vein catheter.

SSTR2 = target: T2, SSTR2 (Homo sapiens, UniProt P30874); experiment: GloSensor assay, inhibition of forskolin-induced cAMP production; assay type: cell-based; conditions: for IC50: read-out: IC50 sstr2
T2 construct: expressed in transfected cells; host or cells: HEK-293T (CRL-3216)
T2 sequence (P30874 whole entry): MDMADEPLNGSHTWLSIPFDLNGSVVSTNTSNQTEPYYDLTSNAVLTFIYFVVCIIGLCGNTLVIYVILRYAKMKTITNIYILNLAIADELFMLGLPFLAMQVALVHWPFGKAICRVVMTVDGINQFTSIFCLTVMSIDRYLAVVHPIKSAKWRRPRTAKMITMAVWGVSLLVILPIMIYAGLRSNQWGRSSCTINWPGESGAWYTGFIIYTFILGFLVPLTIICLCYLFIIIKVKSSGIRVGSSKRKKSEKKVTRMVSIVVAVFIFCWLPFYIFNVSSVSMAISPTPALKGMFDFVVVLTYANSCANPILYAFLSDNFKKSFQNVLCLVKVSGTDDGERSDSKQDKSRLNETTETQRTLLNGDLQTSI

[5] = system: growth hormone (GH) release; experiment: In vivo inhibition of growth hormone release (sandwich ELISA); design: species or system rats; conditions: mean of n = 3
Protocol: In vivo inhibition of GH. Finally, we estimated the in vivo efficacy of 13 and the thioamidated analogs 13b, 13d, and 13e in suppressing the release of growth hormone (GH) post subcutaneous injection at 250 μg/kg dosage (Fig. 7e). 13a was also included as a negative control to assess its effect on GH release. The rats were bled from their orbital sinus, and the plasma GH levels were evaluated through sandwich ELISA. […] This correlates well with the high plasma concentration of 13 at the initial time points and a rapid drop within 2 h of s.c. administration (Fig. 7c). […] In contrast, the inhibitory effect lasts longer in 13b, 13d, and 13e showing a significant reduction in plasma GH levels within 24–48 h (Fig. 7h). […] The rapid drop in plasma concentration of 13 is responsible for its least in vivo efficacy.
Animal housing and acclimatization were done at Central Animal Facility, IISc Bangalore, as mentioned in the previous section, following protocols from the IEAC and CPCSEA. […] Samples were processed as discussed in Supplementary Information, and sandwich ELISA was performed to measure the growth hormone level in blood plasma. For acute toxicity, after peptide injection (s.c.), blood samples were collected on the 14th day for liver and kidney function tests.

[6] = Retention in hydrophobic C18 column by HPLC; conditions: Supplementary Fig 3d, logD7.4 vs tR
[7] = assay type: physicochemical; remark: listed apart in the source

half-life (in vitro [1]) [min] | Papp ([2]; Pe) [×10⁻⁶ cm/s] | logD (physchem) | logD heptane ethylene glycol [3] | fraction unbound (in vitro [4]) | IC50 (SSTR5) [nM] | level at 0.5 h (in vivo; Sprague Dawley) [ng/mL] | level at 1 h (in vivo; Sprague Dawley) [ng/mL] | half-life (in vivo) [min] | IC50 (SSTR2) [nM] | t1/2 in SIF (pancreatin) | binding against SSTR5 (in words) (SSTR5; HEK293T cells expressing SSTR5, cAMP GloSensor) | level at 2 h (in vivo; Sprague Dawley, 250 ug/kg) [ng/mL] | binding against SSTR2 (in words) (SSTR2; HEK293T cells expressing SSTR2, cAMP GloSensor) | tR [6] [min] | Papp ([2]; Pe Avg) [×10⁻⁶ cm/s] | % solubility [7] [%] | Compound | AUC 0_24 ([5]; growth hormone AUC 0-24 h) [ng·h/mL] | AUC 0_48 ([5]; growth hormone AUC 0-48 h) [ng·h/mL] | AUC 24_48 ([5]; growth hormone AUC 24-48 h) [ng·h/mL]
1860 | 1.92 | -0.72 | -1.16 | 0.09 | 232 ± 70.4 | 38.1 | 57 | 36 ± 18 | 19.2 ± 11.4 |  |  |  |  |  |  |  | C[C@@H](O)[C@@H]1NC(=O)[C@H](CCCCN)NC(=O)[C@@H](Cc2c[nH]c3ccccc23)NC(=O)[C@H](Cc2ccccc2)NC(=S)[C@@H]2CCCN2C(=O)[C@H](Cc2ccccc2)NC1=O [13e] (cyclo(F[X8][dW]KT)) |  |  | 
2040 | 2.45 | -0.65 | -0.94 | 0.11 | > 10000 | 146 | 107 | 42 ± 6 | > 10000 | over 72 h | complete loss in binding | 40 | complete loss in binding |  |  |  | C[C@@H](O)[C@@H]1NC(=O)[C@H](CCCCN)NC(=S)[C@@H](Cc2c[nH]c3ccccc23)NC(=O)[C@H](Cc2ccccc2)NC(=O)[C@@H]2CCCN2C(=O)[C@H](Cc2ccccc2)NC1=O [13a] (cyclo(FPF[X10]T)) | 1085 | 2274 | 1188
 |  | 1.61 |  |  |  |  |  |  |  |  |  |  |  | 15.5 | 2.6 | 49 | CC(C)C[C@@H]1NC(=O)[C@@H](CC(C)C)NC(=O)[C@H]2CCCN2C(=S)[C@H](CC(C)C)NC(=O)[C@@H](CC(C)C)NC(=O)[C@H](CC(C)C)NC(=O)[C@@H]2CCCN2C(=O)[C@@H](C)NC1=O [12b] (cyclo(L[dL][X4][dL]L[dA]P)) |  |  | 
